Measurements: patent US20160075682A1, “INHIBITORS OF NICOTINAMIDE PHOSPHORIBOSYLTRANSFERASE, COMPOSITIONS, PRODUCTS AND USES THEREOF” (UNIVERSITÀ DEGLI STUDI DEL PIEMONTE ORIENTALE "AMEDEO …, priority 2013, published 2016)

Key:
Assay type in all cases: in vivo
[1] = tested on: spinal cord injury in male adult CD1 mice; experiment: Spinal cord injury by clip compression, motor function; settings: i.p. one and 6 hours post injury
Experimental: Male adult CD1 mice (25-30 g, Harlan Nossan, Milan, Italy) were used for all studies. Mice were housed in individual cages (5 for each group) and maintained under 12:12 light-dark cycle at 21±1° C. and 50±5% humidity.
Spinal cord injury (SCI) was induced in male adult mice by the clip compression technique (Genovese et al. J. Pharmacol. Exp. Ther. 2008a, 325, 100-14). SHAM-operated animals were taken as control. Drugs were given i.p. one and 6 hours post injury. Animal care was in compliance with Italian regulations on protection of animals used for experimental and other scientific purpose (D.M. 116192) and with the EEC regulations (O.J. of E.C. L 358/1 Dec. 18, 1986). Animals were sacrificed at post-injury (at least five animals/experimental group were analysed).
The motor function of mice subjected to SCI was assessed once a day for 7 days after injury.
The evaluations were made by two blind observers for all analyzed groups.
Briefly, the BMS is a nine-point scale that pro vides a gross indication of locomotor ability and determines the phases of locomotor recovery and features of locomotion. The BMS score was determined for ten mice in each group. Spinal cord tissues were taken at 24 hours after trauma. Tissue was used for histological grading of the damage or for immunocytochemistry with inflammation, cell death or autophagy markers.
As previously described, the spinal cord of male adult CD1 mice was injured by the clip compression technique, compound of formula (I) was administered and the motor function was assessed.

[2] = tested on: DNBS-induced colitis in BALB/c mice; experiment: Experimental colitis induced by DNBS; settings: i.p.; for MPO in the colon / NAMPT in the colon / TNFalpha in the colon / VEGF in the colon: DNBS-treated mice, between 20 mg/Kg and 500 mg/Kg, compared to untreated colitis mice; for protection from DNBS-induced colitis as assessed by the macroscopic damage score: doses of between 20 mg/Kg and 500 mg/Kg
Experimental: Animal work was authorized by the local ethical committee for animal studies (Università del Piemonte Orientale). BALB/c mice (Harlan Nossan, Milan, Italy) were anesthetized by enflurane. Dinitrobenzene sulfonic acid (DNBS; 4 mg in 100 μl of 50% ethanol) was injected into the rectum through a catheter inserted 4.5 cm proximally to the anus. Carrier alone (100 μl of 50% ethanol) was administered in control experiments. Thereafter, the animals were kept for 15 minutes in a Trendelenburg position to avoid reflux. Treatment with either solvent alone or drugs was done immediately after induction and thereafter twice a day. […] On Day 4, the animals were weighed and anaesthetized with chloral hydrate, and the abdomen was opened by a midline incision. The colon was removed, freed from surrounding tissues, opened along the antimesenteric border, rinsed, weighed, and processed for histology, biochemical measurements and immunohistochemistry. Colon damage (macroscopic damage score) was evaluated and scored by two independent observers according to the following criteria: 0, no damage; 1, localized hyperemia without ulcers; 2, linear ulcers with no significant inflammation; 3, linear ulcers with inflammation at one site; 4, two or more major sites of inflammation and ulceration extending >1 cm along the length of the colon; and 5-8, one point is added for each centimeter of ulceration beyond an initial 2 cm. Biochemical and histological analysis also included TNFalpha measurements and myeloperoxidase (MPO) measurements by ELISA assay, and VEGF, NAMPT, COX-2 measurements by immunoblotting. (Esposito E, Mazzon E, Paterniti I, Dal Toso R, Pressi G, Caminiti R, Cuzzocrea S. PPAR-alpha Contributes to the Anti-Inflammatory Activity of Verbascoside in a Model of Inflammatory Bowel Disease in Mice. PPAR Res. 2010; 2010:917312).
(§1) As previously described, the colon of DNBS- or dextran treated animals was removed after the induction of colitis. Compounds of formula (I) were administered intraperitoneally (i.p.).

[3] = tested on: Dextran-induced colitis in C57/BJ6 mice; experiment: Experimental colitis induced by dextran sulfate sodium (DSS); settings: i.p., doses of between 20 mg/Kg and 500 mg/Kg
Experimental: Animal work was authorized by the local ethical committee for animal studies (Università del Piemonte Orientale). Colitis was induced in C57/BJ6 mice (Harlan Nossan, Milan, Italy) by addition of DSS (2%) to their daily drinking water for 7 days followed by a 3-day recovery period without DSS. The severity of colitis was assessed using these set of criteria: (1) clinical index (daily changes in body weight; diarrhea and rectal bleeding); (2) macroscopic evidence of colitis (shortening of colon length). On day 10 of the experiment, animals were sacrificed. Treatments were performed with either solvent alone or drugs once a day for the entire duration of the experiments from day 1 to day 7. The colon lengths were measured and colon tissues were harvested for biochemical measurements, histopathological assessment and scoring. (Tang Y, Preuss F, Turek F W, Jakate S, Keshavarzian A. Sleep deprivation worsens inflammation and delays recovery in a mouse model of colitis. Sleep Med. 2009 June; 10(6):597-603).
as §1

Compound | motor recovery [1] | protection from injury [1] | MPO in the colon [2] | NAMPT in the colon [2] | TNFalpha in the colon [2] | VEGF in the colon [2] | protection from DNBS-induced colitis as assessed by the macroscopic damage score [2] | protection from Dextran-induced colitis as assessed by the macroscopic damage score [3]
c1ccc(-c2ccccc2OCCCCCCn2cc(-c3cccnc3)nn2)cc1 [3-(1-(6-([1,1′-biphenyl]-2-yloxy)hexyl)-1H-1,2,3-triazol-4-yl)pyridine] | partial motor recovery | partially protect from injury | able to reduce | able to reduce | able to reduce | able to reduce | able to protect | able to protect
O=C(NCCCCCCCn1cc(-c2cccnc2)nn1)c1ccccc1-c1ccccc1 [N-(7-(4-(pyridin-3-yl)-1H-1,2,3-triazol-1-yl)heptyl)-[1,1′-biphenyl]-2-carboxamide] | partial motor recovery | partially protect from injury | able to reduce | able to reduce | able to reduce | able to reduce | able to protect | able to protect
